How the values were obtained:
[1] = test system: cancer stem cells (CD44high/CD24low) and cancer cells (CD44low/CD24high) of transformed MCF-10A or MCF-7 cells; conditions: doxorubicin, 0.1 mM metformin, or both; FIG. 3A
MCF10A ER-Src cells [2] = assay: Morphological transformation of TAM-induced MCF10A ER-Src cells (phase-contrast); assay type: cell-based, human; conditions: 0.1 mM metformin and/or TAM for 36 hours; data not shown
MCF10A ER-Src cells [3] = assay: Wound healing motility / invasion assay; assay type: cell-based, human; conditions: 0.1 mM metformin and/or TAM; data not shown
[4] = test system: mammospheres derived from all four breast cancer cell lines (MCF10A ER-Src, MCF7, SKBR3, MDA-MB-468); assay: Mammosphere growth, 6-day old mammospheres (FIG. 2); assay type: cell-based, human; conditions: 0.1 mM metformin, within 48 hours
[5] = test system: non-transformed cells (MCF10A-ER-Src); assay: Growth of non-transformed MCF10A-ER-Src cells with metformin (FIG. 1A); assay type: cell-based, human; conditions: 0.1 or 0.3 mM metformin, 24 hours
[6] = test system: MCF10A ER-Src xenograft tumors
MCF10A-ER-Src cells [7] = assay: Mammosphere formation (FIG. 1B); assay type: cell-based, human; conditions: TAM-treated cells
[8] = test system: MCF10A-ER-Src cancer stem cells; assay: Tumor formation in nude mice by metformin-pretreated cancer stem cells (FIG. 3C); assay type: in vivo; conditions: cells treated with 0.1 mM metformin for 1 hour prior to injection, month after injection
[9] = general statement; cited from earlier work
MCF10A ER-Src cells [10] = assay: Colony formation assay in soft agar (FIG. 1B); assay type: cell-based, human; conditions: TAM-treated cells
[11] = test system: sorted cancer stem cells and non-stem cancer cells of MCF10A ER-Src, MCF7, SKBR3 and MDA-MB-468; assay: Growth of sorted cancer stem cells and non-stem cancer cells (FIG. 3B); assay type: cell-based, human; conditions: 0.1 mM metformin, 0, 24, 48 hours, all four cancer cell lines
MCF10A-ER-Src cells [12] = assay: Focus formation of TAM-treated MCF10A-ER-Src cells (FIG. 1B); assay type: cell-based, human
[13] = test system: cancer stem cells (CD44high/CD24low) from MCF10A-ER-Src tumors; conditions: after 3 cycles of treatment (day 25); FIG. 4B

In the case of CN(C)C(=N)N=C(N)N [metformin], the “killing of cancer stem cells versus cancer cells in the mixed transformed population” value [1] is reported as “preferentially killed cancer stem cells”, the morphological transformation (MCF10A ER-Src cells [2]) is reported as “strongly inhibited” and the “invasive growth in wound-healing assays” value (MCF10A ER-Src cells [3]) is reported as “strongly inhibited”. The number of mammospheres [4] was “dramatic reduction in the number of mammospheres”, the “growth of non-transformed cells” value [5] was “does not affect the growth of non-transformed cells” and the “effect on tumors / tumor volume” value ([6]; after 15 days of treatment (3 cycles every 5 days, i.p.), 4 mg/kg doxorubicin, 100 μg/ml metformin, or both) was “little effect”. The generation of mammospheres (MCF10A-ER-Src cells [7]) was “strongly inhibited”, the “ability of cancer stem cells to form tumors in nude mice” value [8] was “blocked the ability of these cells to form tumors” and the “crossing of the blood brain barrier” value [9] was “can cross the blood brain barrier”. For the same molecule, the “formation of colonies in soft agar” value (MCF10A ER-Src cells [10]) was “strongly inhibited”, the “effect on sorted standard (non-stem) cancer cell population” value [11] was “essentially unaffected” and the “susceptibility of sorted cancer stem cells” value [11] was “quite susceptible”. The focus formation (MCF10A-ER-Src cells [12]) was “strongly inhibited”.

For COc1cccc2c1C(=O)c1c(O)c3c(c(O)c1C2=O)C[C@@](O)(C(=O)CO)C[C@@H]3O[C@H]1C[C@H](N)[C@H](O)[C@H](C)O1 [doxorubicin], the “killing of cancer stem cells versus cancer cells in the mixed transformed population” value [1] was “kills cancer cells, but not cancer stem cells”, the “cancer stem cells in tumors” value [13] was “easily detected” and the “decrease in tumor volume” value ([6]; after 15 days of treatment (3 cycles every 5 days, i.p.), 4 mg/kg doxorubicin) was 2 fold. The “time until tumor growth resumed after treatment” value ([6]; after treatment with doxorubicin alone, FIG. 4A) was 20 days, the “rate of tumor growth after relapse” value ([6]; compared with absence of treatment) was “comparable to that observed in the initial disease” and the “tumor volume after an additional 10 days” value ([6]; day 35) was “further reduction in tumor volume”.

— patent US20120220664A1, “USE OF METFORMIN IN CANCER TREATMENT AND PREVENTION” (priority 2009, published 2012)
